According to patent US12303520B2, “Aqueous nebulization composition” (Nephron Pharmaceuticals Corporation, priority 2017, dated 2025):

Legend:
[1] = background statement, cited from earlier work
[2] = Solubility of budesonide in solvents; assay type: physicochemical
Text: Previous efforts to provide stable, inhalable budesonide solutions, including use of cyclodextrins or use of a modified budesonide, have not been proven pharmaceutically acceptable.

Solubility of budesonide in pure glycerol [2]: not to be soluble
SMILES: CCC[C@@H]1O[C@@H]2C[C@H]3C4CCC5=CC(=O)C=CC5(C)[C@H]4[C@@H](O)CC3(C)[C@]2(C(=O)CO)O1 (mixture of isomers) [Budesonide, (RS)-11-beta, 16-alpha, 17,21-tetrahydroxypregna-I, 4-diene-3,20-dione cyclic 16,17-acetal with butyraldehyde]
Solubility of budesonide in heptanes ([1]; heptanes): practically insoluble
Solubility of budesonide in alcohols ([1]; many alcohols (particularly polyhydric alcohols and organic, water-soluble glycols)): sparingly soluble
Solubility of budesonide in water ([1]; water): practically insoluble
